Usually EC50 stands for the midpoint of the concentration-response curve. Read a low EC50 as higher potency in that assay.

Structures are written as SMILES.

This assay deals with T1, hSTING (Homo sapiens, UniProt Q86WV6, G230A/H232R/R293Q/R71H).
T1 construct: host or cells: THP1-Dual KO-IFNAR2 cells
T1 sequence (Q86WV6 whole entry R71H/G230A/H232R/R293Q): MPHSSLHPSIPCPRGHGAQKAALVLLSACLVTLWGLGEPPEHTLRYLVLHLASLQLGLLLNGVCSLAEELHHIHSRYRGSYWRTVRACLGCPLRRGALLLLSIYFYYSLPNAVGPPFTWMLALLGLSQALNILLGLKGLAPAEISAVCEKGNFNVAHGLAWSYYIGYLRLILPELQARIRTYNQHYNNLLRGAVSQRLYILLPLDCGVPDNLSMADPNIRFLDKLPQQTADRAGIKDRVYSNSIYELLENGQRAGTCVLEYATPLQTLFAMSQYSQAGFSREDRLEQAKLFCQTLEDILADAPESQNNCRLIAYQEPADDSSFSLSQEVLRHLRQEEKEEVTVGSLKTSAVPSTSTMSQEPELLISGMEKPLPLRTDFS
Kind of assay: STING reporter assay (luciferase reporter) in THP1-Dual KO-IFNAR2 cells activated with 2′3′cGAMP. Format: cell-based. The conditions noted are these: 15 μM 2′3′cGAMP, 24 h, luciferase reporter activity. As to the method: STING pathway activation by the compounds described herein is measured using THP1-Dual™ cells (KO-IFNAR2).
THP1-Dual™ KO-IFNAR2 Cells (obtained from invivogen) are maintained in RPMI, 10% FCS, 5 ml P/S, 2 mM L-glut, 10 mM Hepes, and 1 mM sodium pyruvate. Compounds are spotted in empty 384 well tissue culture plates (Greiner 781182) by Echo for a final concentration of […]. Cells are plated into the TC plates at 40 μL per well, 2×10E6 cells/mL. For activation with STING ligand, 2′3′cGAMP (MW 718.38, obtained from Invivogen), is prepared in Optimem media.
The following solutions are prepared for each 1×384 plate: • Solution A: 2 mL Optimem with one of the following stimuli: • 60 uL of 10 mM 2′3′cGAMP→150 μM stock • Solution B: 2 mL Optimem with 60 μL Lipofectamine 2000→Incubate 5 min at RT
2 mL of solution A and 2 ml Solution B is mixed and incubated for 20 min at room temperature (RT). 20 uL of transfection solution (A+B) is added on top of the plated cells, with a final 2′3′cGAMP concentration of 15 μM. The plates are then centrifuged immediately at 340 g for 1 minute, after which they are incubated at 37° C., 5% CO2, >98% humidity for 24 h. Luciferase reporter activity is then measured. EC50 values were calculated by using standard methods known in the art.
Luciferase Reporter Assay:
10 μL of supernatant from the assay is transferred to white 384-plate with flat bottom and squared wells. one pouch of QUANTI-Luc™ Plus is dissolved in 25 mL of water. 100 μL of QLC Stabilizer per 25 mL of QUANTI-Luc™ Plus solution was added. 50 μL of QUANTI-Luc™ Plus/QLC solution per well is then added. Luminescence is measured on a Platereader (e.g., Spectramax I3X (Molecular Devices GF3637001)).
Luciferase reporter activity is then measured. EC50 values are calculated by using standard methods known in the art.
For the compound `COc1nccc2[nH]cc(NC(=O)Nc3ccc(C(F)(F)F)cc3)c12` [Compound 320, 1-(4-methoxy-1H-pyrrolo[3,2-c]pyridin-3-yl)-3-(4-(trifluoromethyl)phenyl)urea], the EC50 is 5 to 100 µM.

`CC(C)(O)c1cccc(-c2ccnc3[nH]cc(NC(=O)Nc4ccc(C(F)(F)F)cc4)c23)c1` [Compound 205] yielded an EC50 of 5 to 100 µM.

For `O=C(Nc1ccc(C(F)(F)F)cc1)Nc1c[nH]c2nccc(-c3cccnc3)c12` [Compound 189], the EC50 is 5 to 100 µM.

Turning to `O=C(Nc1ccc(C(F)(F)F)cc1)Nc1c[nH]c2cnccc12` [Compound 144], the EC50 is 1 to 5 µM.

In turn, `O=C(Nc1ccc(C2CCC2)c(F)c1)Nc1c[nH]c2ncc(F)cc12` [Compound 250] came in with an EC50 of 0.2 to 1 µM.

With `O=C(Nc1cccc(C2CCCCC2)n1)Nc1c[nH]c2ncc(F)cc12` [Compound 260], the EC50 lay within 1 to 5 µM.

Turning to `O=C(Nc1ccc(C(F)(F)F)cn1)Nc1c[nH]c2ncc(F)cc12` [Compound 138], the EC50 fell in the range of 0.2 to 1 µM.

`CC(c1ccc(-c2ccnc3[nH]cc(NC(=O)Nc4ccc(C(F)(F)F)cc4)c23)cc1)N(C)C` (stereo not shown) [Compound 192] gave an EC50 of 5 to 100 µM.

`C#Cc1cccc(NC(=O)Nc2c[nH]c3ncc(F)cc23)c1` [Compound 251]: the EC50 lay within 0.2 to 1 µM.

Compound `O=C(Nc1ccc(C2CCCCC2)cn1)Nc1c[nH]c2ncc(F)cc12` [Compound 261] yielded an EC50 of 0.04 to 0.2 µM.

With `O=C(Nc1c[nH]c2ncccc12)NC1CCC(c2ccccc2)CC1` (stereo not shown) [Compound 166], the EC50 was in the range of 0.2 to 1 µM.

Consider `CN(C(=O)Nc1c[nH]c2ncc(F)cc12)c1ccc(C(F)(F)F)cc1` [Compound 172], for which the EC50 fell in the range of 5 to 100 µM.

`O=C(Nc1c[nH]c2ncccc12)NC1CC2CCC(C2)C1` (stereo not shown) [Compound 160] returned an EC50 of 5 to 100 µM.

For the compound `O=C(Nc1c[nH]c2ncccc12)N1CCc2ccccc21` [Compound 303], the EC50 was in the range of 5 to 100 µM.

In turn, `Cc1cnc2[nH]cc(NC(=O)Nc3ccc(C(F)(F)F)cc3)c2c1` [Compound 163] came in with an EC50 of 0.2 to 1 µM.

In the case of `O=C(Nc1cccc(C2CCCCC2)c1)Nc1c[nH]c2ncc(F)cc12` [Compound 271], the half-maximal effective concentration (EC50) is 0.2 to 1 µM.

With `CCCCC1CCC(NC(=O)Nc2c[nH]c3ncccc23)C1` (stereo not shown) [Compound 285], the EC50 was 1 to 5 µM.

In turn, `O=C(Nc1c[nH]c2ncccc12)N1CCCc2ccccc21` [Compound 301] returned an EC50 of 5 to 100 µM.

With `O=C(Nc1c[nH]c2ncc(-c3ccccc3)cc12)NC1CCC(C(F)(F)F)CC1` (stereo not shown) [Compound 162, 3-[5-phenyl-1H-pyrrolo[2,3-b]pyridin-3-yl]-1l-[4-(trifluoromethyl)cyclohexyl]urea], the EC50 lay in the range of 5 to 100 µM.

Compound `O=C(Nc1ccc(C(F)(F)F)cc1)Nc1c[nH]c2c(Cl)ncnc12` [Compound 183] yielded a 50% effective concentration (EC50) of 5 to 100 µM.

`O=C(Nc1ccc(C2CCCCC2)cn1)Nc1c[nH]c2ccncc12` [Compound 316] yielded an EC50 of 0.2 to 1 µM.

Regarding `O=C(Nc1ccc(F)cn1)Nc1c[nH]c2ncc(F)cc12` [Compound 280], the EC50 was 1 to 5 µM.

`O=C(Nc1ccc(C(F)(F)F)cc1)Nc1c[nH]c2nccc(-c3ccncc3)c12` [Compound 206] returned an EC50 of 5 to 100 µM.

`O=C(Nc1ncc(-c2ccccc2)s1)Nc1c[nH]c2ncc(F)cc12` [Compound 293] yielded an EC50 of 0.2 to 1 µM.

Compound `O=C(Nc1c[nH]c2ncccc12)NC1CC(c2ccccc2)C1` (stereo not shown) [Compound 133] returned an EC50 of 5 to 100 µM.

`CS(=O)(=O)c1ccc(-c2cnc3[nH]cc(NC(=O)Nc4ccc(C(F)(F)F)cc4)c3c2)cc1` [Compound 207] registered an EC50 of 5 to 100 µM.

`CCCCC1CCC(NC(=O)Nc2c[nH]c3cccnc23)CC1` (stereo not shown) [Compound 322] yielded an EC50 of 1 to 5 µM.

For the compound `C=Cc1cnc2[nH]cc(NC(=O)Nc3ccc(C(F)(F)F)cc3)c2c1` [Compound 276, 3-[5-ethenyl-1H-pyrrolo[2,3-b]pyridin-3-yl]-1-[4-(trifluoromethyl)phenyl] urea], the EC50 is 0.2 to 1 µM.

Consider `O=C(Nc1ccc(C(F)(F)F)nc1)Nc1c[nH]c2ncc(F)cc12` [Compound 281], for which the half-maximal effective concentration (EC50) lay within 1 to 5 µM.

For `O=C(Nc1ccc(C(F)(F)F)cc1)Nc1c[nH]c2ncc(C3=CCOCC3)cc12` [Compound 212], the concentration giving a half-maximal response (EC50) is 1 to 5 µM.

Consider `O=C(Nc1c[nH]c2cccnc12)NC1CC2CCC(C2)C1` (stereo not shown) [Compound 157], for which the EC50 was in the range of 5 to 100 µM.

Regarding `CCCCC1CCN(C(=O)Nc2c[nH]c3ncc(F)cc23)CC1` [Compound 294], the EC50 lay within 5 to 100 µM.

For the compound `CC(C)(O)c1cccc(-c2cnc3[nH]cc(NC(=O)Nc4ccc(C(F)(F)F)cc4)c3c2)c1` [Compound 215], the EC50 is 1 to 5 µM.

The compound `O=C(Nc1ccc(C(F)(F)F)cc1)Nc1c[nH]c2ncc(F)cc12` [Compound 173, 1-(5-fluoro-1H-pyrrolo[2,3-b]pyridin-3-yl)-3-(4-(trifluoromethyl)phenyl)urea] yielded a concentration for a half-maximal effect (EC50) of 0.04 to 0.2 µM.

Regarding `CCCCc1ccc(N(C)C(=O)Nc2c[nH]c3ncc(F)cc23)cc1` [Compound 246], the EC50 is 1 to 5 µM.

On to `CC(C)(O)c1ccc(-c2cnc3[nH]cc(NC(=O)Nc4ccc(C(F)(F)F)cc4)c3c2)cc1` [Compound 209], for which the EC50 lay within 1 to 5 µM.

`Nc1cnc2[nH]cc(NC(=O)N3CC(c4ccccc4)C3)c2c1` [Compound 249] registered an EC50 of 5 to 100 µM.

With `CN(C(=O)Nc1c[nH]c2cccnc12)c1ccc(C(F)(F)F)cc1` [Compound 154], the EC50 fell in the range of 5 to 100 µM.

`CCCCC1CCC(NC(=O)Nc2c[nH]c3cnccc23)CC1` (stereo not shown) [Compound 314] registered an EC50 of 1 to 5 µM.

Turning to `O=C(Nc1ccc2ccncc2c1)Nc1c[nH]c2ncc(F)cc12` [Compound 287], the EC50 fell in the range of 1 to 5 µM.

Compound `Cn1cc(-c2cnc3[nH]cc(NC(=O)Nc4ccc(C(F)(F)F)cc4)c3c2)c(C(F)(F)F)n1` [Compound 198] showed an EC50 of 1 to 5 µM.

Consider `O=C(Nc1c[nH]c2cccnc12)N1CCC2(CCCC2)CC1` [Compound 159, N-(1H-pyrrolo[3,2-b]pyridin-3-yl)-8-azaspiro[4.5]decane-8-carboxamide], for which the EC50 was 5 to 100 µM.

Regarding `CCCCC1CCC(NC(=O)Nc2c[nH]c3ncc(F)cc23)CC1` (stereo not shown) [Compound 273], the EC50 fell in the range of 0.2 to 1 µM.

For `O=C(Nc1cccc(C2CCCCC2)c1)Nc1c[nH]c2cccnc12` [Compound 139], the concentration giving a half-maximal response (EC50) is 0.2 to 1 µM.

As for `CCc1cnc(NC(=O)Nc2c[nH]c3ncccc23)s1` [Compound 168], the EC50 lay within 5 to 100 µM.

Take `CCCCC1CCN(C(=O)Nc2c[nH]c3ncccc23)CC1` [Compound 132]: the EC50 is 1 to 5 µM.

For the compound `O=C(Nc1ccc(C2CCCCC2)cn1)Nc1c[nH]c2cccnc12` [Compound 326], the EC50 fell in the range of 0.2 to 1 µM.

In turn, `CCCCc1cccc(NC(=O)Nc2c[nH]c3ncc(F)cc23)c1` [Compound 274] displayed an EC50 of 0.04 to 0.2 µM.

The compound `COc1ccc(F)c(F)c1-c1cnc2[nH]cc(NC(=O)Nc3ccc(C(F)(F)F)cc3)c2c1` [Compound 214] displayed an EC50 of 5 to 100 µM.

In turn, `CCCCc1ncc(NC(=O)Nc2c[nH]c3ncc(F)cc23)cc1F` [Compound 255] had an EC50 of 0.2 to 1 µM.

Consider `O=C(Nc1cccc(C(F)(F)F)c1)Nc1c[nH]c2ncc(F)cc12` [Compound 297], for which the EC50 lay within 0.2 to 1 µM.

`O=C(Nc1c[nH]c2ncc(F)cc12)NC1CCC2(CCCCC2)CC1` [Compound 300] had an EC50 of 0.2 to 1 µM.

(Values after patent US11618749B2, “Compounds and compositions for treating conditions associated with STING activity” (IFM Due, Inc., priority 2018, dated 2023).)
